Assays:
purified CD14+ cells = test: Cytokine production by purified CD14+ cells (ELISA of supernatants, 36 hrs); type: cell-based, human
Description: Circulating mononuclear cells (MNC) are isolated by density gradient (Ficoll-Hypaque) using buffy coats from 14 normal donors (Servizio Immunotrasfusionale e terapie cellulari, Azienda Ospedaliera Universitaria A. Meyer, Firenze). 200×10^6 MNC are separated by the use of a commercial kit (CD14 isolation kit, Miltenyi) by the addition of 400 μl anti-CD14 monoclonal antibody bound to iron beads followed by isolation on magnetic columns (LS column). 50×10^6 monocytes are recovered by positive selection and are extensively washed with calcium and magnesium-free sterile PBS and then seeded in complete medium plus 10% foetal calf serum in 24 flat bottomed plates at the concentration of 1×10^6/ml. […] The plates are incubated for 36 hrs at 37° C. in 5% CO2 humidified atmosphere and the supernatants are collected after centrifugation at 1200 rpm, aliquoted and then stored at −20° C. up to the assay. […]
For the determination of cytokines and chemokines of the innate immunity, commercial ELISAs have been used: IL-12p40 (Cytoscreen, Biosource Int, Camarillo, Calif.), IFN-alfa (Cytoscreen), TNF-alfa (Cytoscreen), IL-10 (Pharmingen), IL-6 and CXCL10 (R&D System). 100 μl/well of single supernatants are incubated in flat bottomed plates as specified by the productors and the amounts of the single cytokines are expressed as pg/ml on the basis of a reference curve by using recombinant cytokines.

TLR3 = biological target: T1, TLR3 (Homo sapiens, UniProt O15455); test: TLR3-transfected HEK293 cells, NF-kB luciferase reporter; type: cell-based; conditions: Poly I:C 50 μg/ml; data not shown
T1 construct: expressed in transfected cells; host or cells: HEK293 (transient Nucleofection, Amaxa)
T1 sequence (O15455 24-904): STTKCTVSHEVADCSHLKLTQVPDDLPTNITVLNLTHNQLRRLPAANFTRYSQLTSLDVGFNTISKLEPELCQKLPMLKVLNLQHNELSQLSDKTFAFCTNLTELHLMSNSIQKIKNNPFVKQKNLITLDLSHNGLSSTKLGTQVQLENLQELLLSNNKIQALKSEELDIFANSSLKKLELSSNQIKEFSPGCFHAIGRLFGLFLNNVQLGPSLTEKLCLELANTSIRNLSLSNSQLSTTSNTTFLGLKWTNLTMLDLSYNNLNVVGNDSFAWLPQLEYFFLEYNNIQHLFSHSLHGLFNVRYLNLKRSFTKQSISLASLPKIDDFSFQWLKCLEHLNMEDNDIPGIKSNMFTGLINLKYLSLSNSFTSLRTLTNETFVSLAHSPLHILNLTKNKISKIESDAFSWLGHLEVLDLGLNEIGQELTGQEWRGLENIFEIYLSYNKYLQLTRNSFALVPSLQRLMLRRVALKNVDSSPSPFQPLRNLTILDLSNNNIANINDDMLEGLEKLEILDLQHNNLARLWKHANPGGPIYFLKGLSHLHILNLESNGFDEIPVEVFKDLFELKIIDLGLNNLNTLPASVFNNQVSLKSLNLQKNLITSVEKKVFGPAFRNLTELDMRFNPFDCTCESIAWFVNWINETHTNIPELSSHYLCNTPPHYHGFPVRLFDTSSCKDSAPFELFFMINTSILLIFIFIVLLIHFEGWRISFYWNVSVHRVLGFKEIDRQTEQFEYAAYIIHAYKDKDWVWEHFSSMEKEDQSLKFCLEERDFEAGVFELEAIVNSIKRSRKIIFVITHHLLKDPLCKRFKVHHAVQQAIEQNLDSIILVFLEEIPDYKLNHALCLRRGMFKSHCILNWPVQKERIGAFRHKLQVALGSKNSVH
Description: (§1) HEK293 cells are detached by trypsin from the plastic surface of the culture bottle, extensively washed with calcium and magnesium-free PBS, counted and adjusted at the concentration 1×10^6 cells/tube in polypropylene V-bottomed tubes. After the final wash, the cells are pelleted and 100 μl transfection buffer (Amaxa) is added together with […], TLR7, TLR8 or TLR9-encoding and ELAM-1 promoter NF-kB luciferase reporter plasmids. The mixture thus obtained is transferred in special cuvettes and transient transfection is obtained in a special apparatus which is able to directly introduce genetic material into the nucleus (Nucleofection®, Amaxa GmbH). The cells are then recovered and cultured at 1×10^5/ml in 48-flat bottomed plates in E-MEM medium plus 5% foetal calf serum for 18 hrs. […] Finally the luciferase activity is measured in the cellular lysates by a commercial kit (Promega).

purified B cells = test: B cell activation (tritiated thymidine incorporation); type: cell-based, human
Description: Circulating mononuclear cells (MNC) are isolated by Ficoll-Hypaque density gradient from buffy coats of healthy donors (Servizio Immunotrasfusionale e terapie cellulari, Azienda Ospedaliero Universitaria Pediatrica A. Meyer, Firenze). 200×10^6 MNC are then separated using the commercial CD19 isolation kit (Miltenyi) by the addition of 400 μl iron microbead-bound anti-CD19 monoclonal antibody followed by magnetic separation on LS column. 20×10^6 B cells are isolated by positive selection and are extensively washed by the use of calcium- and magnesium-free PBS and cultured in triplicates at the concentration of 1×10^6/ml/well in complete medium plus 10% foetal calf serum in 96-U plates. […] Plates are incubated in humidified atmosphere at 37° C. for 72 hrs and at the end 0.5 μCi tritiated thymidine is added to each well for further 16 hrs. The incorporated radioactivity is measured as already described in step (f) of Example 4.

TLR9 = biological target: T2, TLR9 (Homo sapiens, UniProt Q9NR96); test: TLR9-transfected HEK293 cells, NF-kB luciferase reporter; type: cell-based; conditions: CpG-ODN 2006 1.3 μM; data not shown
T2 construct: expressed in transfected cells; host or cells: HEK293 (transient Nucleofection, Amaxa)
T2 sequence (Q9NR96 26-1032): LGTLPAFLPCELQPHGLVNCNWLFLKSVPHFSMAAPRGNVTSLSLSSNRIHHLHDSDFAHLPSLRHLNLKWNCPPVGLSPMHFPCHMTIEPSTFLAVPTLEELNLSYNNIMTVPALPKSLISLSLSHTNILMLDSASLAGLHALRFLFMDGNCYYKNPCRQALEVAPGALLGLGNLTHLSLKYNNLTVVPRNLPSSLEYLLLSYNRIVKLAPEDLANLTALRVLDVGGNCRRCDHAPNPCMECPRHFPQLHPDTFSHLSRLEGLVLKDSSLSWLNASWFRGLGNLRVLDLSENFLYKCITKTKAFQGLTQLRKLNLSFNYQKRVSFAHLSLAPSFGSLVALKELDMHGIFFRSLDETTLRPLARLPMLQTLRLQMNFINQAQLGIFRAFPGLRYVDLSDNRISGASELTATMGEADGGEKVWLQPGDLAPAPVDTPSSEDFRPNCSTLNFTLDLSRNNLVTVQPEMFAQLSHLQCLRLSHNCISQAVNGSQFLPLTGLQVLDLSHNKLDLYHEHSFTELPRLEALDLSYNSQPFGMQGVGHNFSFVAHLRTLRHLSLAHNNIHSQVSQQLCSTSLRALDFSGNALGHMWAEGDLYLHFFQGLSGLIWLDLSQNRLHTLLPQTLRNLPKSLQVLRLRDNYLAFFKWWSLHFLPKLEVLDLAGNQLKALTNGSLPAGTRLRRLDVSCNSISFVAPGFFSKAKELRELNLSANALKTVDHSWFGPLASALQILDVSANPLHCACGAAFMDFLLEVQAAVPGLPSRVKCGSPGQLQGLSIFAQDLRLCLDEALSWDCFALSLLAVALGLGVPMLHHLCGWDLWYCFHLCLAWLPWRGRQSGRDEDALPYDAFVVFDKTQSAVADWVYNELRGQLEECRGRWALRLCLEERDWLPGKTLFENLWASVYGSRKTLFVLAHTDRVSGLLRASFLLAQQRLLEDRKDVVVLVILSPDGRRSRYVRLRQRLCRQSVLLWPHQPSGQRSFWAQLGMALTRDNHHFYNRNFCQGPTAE
Description: as §1

BALB/C and C57BL/6 mice = test: Modification of antibody response in sensitized mice (serum IgE); type: in vivo; conditions: mice sensitized i.p. with 10 μg in alum
Description: Ten BALB/C and ten C57BL/6 6-8 wk-old female mice (Charles River) have been intraperitoneally sensitized at day 0 and d 7 with 10 μg OVA (5 animals per strain) or OVA-conj (5 animals per strain) in the presence of alum. At d 14 and d 18 animals are stimulated intratracheally with 10 μg OVA and after 24 hrs unspecific bronchial hyperreactivity is measured administering first an aerosolized PBS solution to obtain the standard value and then an aerosolized solution containing increasing concentrations of methacolin for 3 min (6.25-12.5-25-50 mg/ml). The pletismograph in which the animal is inserted is able to monitor the values of airflow resistance.
Serum levels of total and OVA-specific IgE have been determined at d 14 and d 18 (before the intratracheal allergic stimulation) in sensitized animals by the use of commercial kits.

[1] = Table A, Donor #1, LPS, dose not printed in table (100 ng/ml elsewhere in the source)
[2] = Table A, Donor #2, LPS, dose not printed in table (100 ng/ml elsewhere in the source)
[3] = Table E, Donor #1, dose 0.1 μg/ml
[4] = Table E, Donor #2, dose 0.1 μg/ml

lipopolysaccharide [LPS, reference compound]
IL-6 production (purified CD14+ cells; [1]): 12905 pg/mL | IL-10 production (purified CD14+ cells; [1]): 8140 pg/mL | IL-12p40 production (purified CD14+ cells; [1]): 2725 pg/mL | TNF-alfa production (purified CD14+ cells; [1]): 5331 pg/mL | IL-6 production (purified CD14+ cells; [2]): 3125 pg/mL | IL-10 production (purified CD14+ cells; [2]): 1155 pg/mL | IL-12p40 production (purified CD14+ cells; [2]): 6311 pg/mL | TNF-alfa production (purified CD14+ cells; [2]): 4619 pg/mL | IL-6 production (mean ± SE) (purified CD14+ cells; Table B, dose 1 μg/ml): 17.5 ± 4.9 ng/mL | IL-10 production (mean ± SE) (purified CD14+ cells; Table B, dose 1 μg/ml): 7.9 ± 1.9 ng/mL | IL-12p40 production (mean ± SE) (purified CD14+ cells; Table B, dose 1 μg/ml): 3.8 ± 1.7 ng/mL | TNF-alfa production (mean ± SE) (purified CD14+ cells; Table B, dose 1 μg/ml): 7.6 ± 2.7 ng/mL | IL-6 production (purified CD14+ cells; [3]): 27235 pg/mL | IL-10 production (purified CD14+ cells; [3]): 530 pg/mL | IL-12p40 production (purified CD14+ cells; [3]): 5627 pg/mL | TNF-alfa production (purified CD14+ cells; [3]): 3136 pg/mL | IL-6 production (purified CD14+ cells; [4]): 39499 pg/mL | IL-10 production (purified CD14+ cells; [4]): 3000 pg/mL | IL-12p40 production (purified CD14+ cells; [4]): 10522 pg/mL | TNF-alfa production (purified CD14+ cells; [4]): 14061 pg/mL | cytokine production from purified CD14+ cells (in words) (purified CD14+ cells; text to Tables A and B): relevant amounts of modulatory (IL-12) and inflammatory (TNF-alfa and IL-6) cytokines

Poly I:C
NF-κB expression in TLR3-expressing HEK293 cells (TLR3): activates TLR3-expressing cells

CpG-ODN 2006 [reference compound]
Stimulation index (mean ± SE) (purified B cells; B cell proliferation, concentration 10 μg/ml): 90.3 ± 7.5 | proliferation of purified B lymphocytes (in words) (purified B cells; thymidine incorporation): high levels of incorporation of radioactive thymidine | NF-κB expression in TLR9-transfected HEK293 cells (TLR9): able to induce NF-κB expression

B1: ovalbumin (protein, UniProt P01012 2-386, looked up)
Ovalbumin: GSIGAASMEFCFDVFKELKVHHANENIFYCPIAIMSALAMVYLGAKDSTRTQINKVVRFDKLPGFGDSIEAQCGTSVNVHSSLRDILNQITKPNDVYSFSLASRLYAEERYPILPEYLQCVKELYRGGLEPINFQTAADQARELINSWVESQTNGIIRNVLQPSSVDSQTAMVLVNAIVFKGLWEKAFKDEDTQAMPFRVTEQESKPVQMMYQIGLFRVASMASEKMKILELPFASGTMSMLVLLPDEVSGLEQLESIINFEKLTEWTSSNVMEERKIKVYLPRMKMEEKYNLTSVLMAMGITDVFSSSANLSGISSAESLKISQAVHAAHAEINEAGREVVGSAEAGVDAASVSEEFRADHPFLFCIKHIATNAVLFFGRCVSP
notes: ovalbumin (OVA grade V)
Total IgE (mean ± SE) (BALB/C and C57BL/6 mice; d14 pre-challenge): 966 ± 268 pg/mL | Total IgE (mean ± SE) (BALB/C and C57BL/6 mice; d18 post-challenge): 680 ± 234 pg/mL

Source: patent US8822407B2, “Preparation of conjugates comprising adenine derivatives and allergenic proteins and their use for specific immunotherapy of allengenic diseases” (Universita' Degli Studi di Firenze, priority 2010, dated 2014)
